Measured values taken from patent US6825172B2, “3-descladinosyl-6-O-carbamoyl and 6-O-carbonoyl macrolide antibacterial agents” (Janssen Pharmaceutica, NV, priority 2002, dated 2004).
In brackets after ≈: the same amount, converted by molar mass. Where two headings read alike, the source gives them in different places.

Tests used:
Assay in all cases: MIC, microdilution broth method (NCCLS)
Type in all cases: cell-based
S. pneumoniae ATCC49619 = settings: Streptococcus pneumoniae, read-out: MIC Values, D: S. pneumoniae ATCC49619
How it was run: (§1)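 NCCLS M7-A4 broth microdilution: two-fold drug dilutions in cation-adjusted Mueller-Hinton broth, inoculum approximately 5×10^4 CFU/well. Trays incubated at 35 °C for 16-20 hours. MIC read by comparing growth to compound-free growth controls.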

S. aureus ATCC29213 = settings: Staphylococcus aureus, read-out: MIC Values, B: S. aureus ATCC29213
How it was run: as §1

H. influenzae ATCC49247 = settings: Haemophilus influenzae, read-out: MIC Values, E: H. influenzae ATCC49247
How it was run: as §1

E. faecalis ATCC29212 = settings: Enterococcus faecalis, read-out: MIC Values, C: E. faecalis ATCC29212
How it was run: as §1

E. coli OC2605 = settings: Escherichia coli
How it was run: as §1

[1] = Table 1, 6-Carbamoyl-3-Acyl Macrolide Derivatives
[2] = Table 1, 6-Carbamoyl-3-Acyl Macrolide Derivatives, read-out: MIC Values, A: E. coli OC2605
[3] = Table 2, 3,6-Dicarbamoyl Macrolide Derivatives
[4] = Table 2, 3,6-Dicarbamoyl Macrolide Derivatives, read-out: MIC Values, A: E. coil OC2605

Row | SMILES | MIC (S. pneumoniae ATCC49619; [1]) | MIC (S. aureus ATCC29213; [1]) | MIC (H. influenzae ATCC49247; [1]) | MIC (E. faecalis ATCC29212; [1]) | MIC (E. coli OC2605; [2]) | MIC (S. pneumoniae ATCC49619; [3]) | MIC (S. aureus ATCC29213; [3]) | MIC (H. influenzae ATCC49247; [3]) | MIC (E. faecalis ATCC29212; [3]) | MIC (E. coli OC2605; [4])
1 | CC[C@H]1OC(=O)[C@H](C)[C@@H](OC(=O)Cc2cccnc2)[C@H](C)[C@@H](O[C@@H]2O[C@H](C)C[C@H](N(C)C)[C@H]2O)[C@](C)(OC(=O)NC/C=C/c2cnc3ccccc3c2)C[C@@H](C)C(=O)[C@H](C)[C@H]2NC(=O)O[C@@]21C [Compound 30] | 0.03 µg/mL (≈ 0.0323 µM) | 1 µg/mL (≈ 1.08 µM) | 4 µg/mL (≈ 4.3 µM) | 0.5 µg/mL (≈ 0.538 µM) | 16 µg/mL (≈ 17.2 µM) | – | – | – | – | –
2 | CC[C@H]1OC(=O)[C@H](C)[C@@H](OC(=O)N(C)Cc2cccnc2)[C@H](C)[C@@H](O[C@@H]2O[C@H](C)C[C@H](N(C)C)[C@H]2O)[C@](C)(OC(=O)NC/C=C/c2ccc(-c3ncccn3)cc2)C[C@@H](C)C(=O)[C@H](C)[C@H]2NC(=O)O[C@@]21C [Compound 58] | – | – | – | – | – | 0.03 µg/mL (≈ 0.0304 µM) | 0.25 µg/mL (≈ 0.254 µM) | 2 µg/mL (≈ 2.03 µM) | 0.25 µg/mL (≈ 0.254 µM) | > 16 µg/mL
3 | CC[C@H]1OC(=O)[C@H](C)[C@@H](OC(=O)Cc2cccnc2)[C@H](C)[C@@H](O[C@@H]2O[C@H](C)C[C@H](N(C)C)[C@H]2O)[C@](C)(OC(=O)NC/C=C/c2ccc(-c3ncccn3)cc2)C[C@@H](C)C(=O)[C@H](C)[C@H]2NC(=O)O[C@@]21C [Compound 4, 3-Pyridineacetic acid, (3aS,4R,7R,8S,9S,10R,11R,13R,15R,15aR)-4-ethyltetradecahydro-3a,7,9,11,13,15-hexamethyl-2,6,14-trioxo-11-[[[[(2E)-3-[4-(2-pyrimidinyl)phenyl]-2-propenyl]amino]carbonyl]oxy]-10-[[3,4,6-trideoxy-3-(dimethylamino)-β-D-xylo-hexopyranosyl]oxy]-2H-oxacyclotetradecino[4,3-d]oxazol-8-yl ester] | 0.06 µg/mL (≈ 0.0627 µM) | 0.25 µg/mL (≈ 0.261 µM) | 2 µg/mL (≈ 2.09 µM) | 0.25 µg/mL (≈ 0.261 µM) | 8 µg/mL (≈ 8.36 µM) | – | – | – | – | –
4 | CC[C@H](C)C(=O)O[C@H]1[C@H](C)[C@@H](O[C@@H]2O[C@H](C)C[C@H](N(C)C)[C@H]2O)[C@](C)(OC(=O)NC/C=C/c2ccc(-c3ncccn3)cc2)C[C@@H](C)C(=O)[C@H](C)[C@H]2NC(=O)O[C@]2(C)[C@@H](CC)OC(=O)[C@@H]1C [Compound 15] | 0.06 µg/mL (≈ 0.0651 µM) | 0.5 µg/mL (≈ 0.542 µM) | 4 µg/mL (≈ 4.34 µM) | 0.5 µg/mL (≈ 0.542 µM) | > 16 µg/mL | – | – | – | – | –
5 | CC[C@H]1OC(=O)[C@H](C)[C@@H](OC(=O)N2CCCCC2)[C@H](C)[C@@H](O[C@@H]2O[C@H](C)C[C@H](N(C)C)[C@H]2O)[C@](C)(OC(=O)NC/C=C/c2ccc(-c3ncccn3)cc2)C[C@@H](C)C(=O)[C@H](C)[C@H]2NC(=O)O[C@@]21C [Compound 64] | – | – | – | – | – | 0.06 µg/mL (≈ 0.0632 µM) | 1 µg/mL (≈ 1.05 µM) | 8 µg/mL (≈ 8.43 µM) | 0.5 µg/mL (≈ 0.527 µM) | > 16 µg/mL
6 | CC[C@H]1OC(=O)[C@H](C)[C@@H](OC(=O)c2cnccn2)[C@H](C)[C@@H](O[C@@H]2O[C@H](C)C[C@H](N(C)C)[C@H]2O)[C@](C)(OC(=O)NC/C=C/c2ccc(-c3ncccn3)cc2)C[C@@H](C)C(=O)[C@H](C)[C@H]2NC(=O)O[C@@]21C [Compound 5] | 0.06 µg/mL (≈ 0.0636 µM) | 0.5 µg/mL (≈ 0.53 µM) | 8 µg/mL (≈ 8.47 µM) | 0.5 µg/mL (≈ 0.53 µM) | > 16 µg/mL | – | – | – | – | –
7 | CC[C@H]1OC(=O)[C@H](C)[C@@H](OC(=O)Nc2ccc3ccccc3c2)[C@H](C)[C@@H](O[C@@H]2O[C@H](C)C[C@H](N(C)C)[C@H]2O)[C@](C)(OC(=O)NC/C=C/c2ccc(-c3ncccn3)cc2)C[C@@H](C)C(=O)[C@H](C)[C@H]2NC(=O)O[C@@]21C [Compound 53] | – | – | – | – | – | 0.25 µg/mL (≈ 0.248 µM) | 2 µg/mL (≈ 1.99 µM) | > 16 µg/mL | 1 µg/mL (≈ 0.993 µM) | > 16 µg/mL
8 | CC[C@H]1OC(=O)[C@H](C)[C@@H](OC(=O)Cc2cccnc2)[C@H](C)[C@@H](O[C@@H]2O[C@H](C)C[C@H](N(C)C)[C@H]2O)[C@](C)(OC(=O)NC/C=C/c2cnc(C(C)C)nc2)C[C@@H](C)C(=O)[C@H](C)[C@H]2NC(=O)O[C@@]21C [Compound 41] | 0.12 µg/mL (≈ 0.13 µM) | 1 µg/mL (≈ 1.08 µM) | 4 µg/mL (≈ 4.33 µM) | 0.5 µg/mL (≈ 0.542 µM) | > 16 µg/mL | – | – | – | – | –
9 | CC[C@H]1OC(=O)[C@H](C)[C@@H](OC(=O)C(C)C)[C@H](C)[C@@H](O[C@@H]2O[C@H](C)C[C@H](N(C)C)[C@H]2O)[C@](C)(OC(=O)NC/C=C/c2cnc3ccccc3c2)C[C@@H](C)C(=O)[C@H](C)[C@H]2NC(=O)O[C@@]21C [Compound 31, Propanoic acid, 2-methyl-, (3aS,4R,7R,8S,9S,10R,11R,13R,15R,15aR)-4-ethyltetradecahydro-3a,7,9,11,13,15-hexamethyl-2,6,14-trioxo-11-[[[[(2E)-3-(3-quinolinyl)-2-propenyl]amino]carbonyl]oxy]-10-[[3,4,6-trideoxy-3-(dimethylamino)-β-D-xylo-hexopyranosyl]oxy]-2H-oxacyclotetradecino[4,3-d]oxazol-8-yl ester] | 0.03 µg/mL (≈ 0.034 µM) | 0.5 µg/mL (≈ 0.567 µM) | 4 µg/mL (≈ 4.54 µM) | 0.25 µg/mL (≈ 0.284 µM) | 8 µg/mL (≈ 9.08 µM) | – | – | – | – | –
10 | CC[C@H]1OC(=O)[C@H](C)[C@@H](OC(=O)N2CCOCC2)[C@H](C)[C@@H](O[C@@H]2O[C@H](C)C[C@H](N(C)C)[C@H]2O)[C@](C)(OC(=O)NC/C=C/c2ccc(-c3ncccn3)cc2)C[C@@H](C)C(=O)[C@H](C)[C@H]2NC(=O)O[C@@]21C [Compound 63] | – | – | – | – | – | 0.06 µg/mL (≈ 0.0631 µM) | 0.5 µg/mL (≈ 0.526 µM) | 4 µg/mL (≈ 4.21 µM) | 0.5 µg/mL (≈ 0.526 µM) | > 16 µg/mL
11 | CC[C@H]1OC(=O)[C@H](C)[C@@H](OC(=O)/C=C/c2cccnc2)[C@H](C)[C@@H](O[C@@H]2O[C@H](C)C[C@H](N(C)C)[C@H]2O)[C@](C)(OC(=O)NC/C=C/c2ccc(-c3ncccn3)cc2)C[C@@H](C)C(=O)[C@H](C)[C@H]2NC(=O)O[C@@]21C [Compound 6] | 0.12 µg/mL (≈ 0.124 µM) | 2 µg/mL (≈ 2.06 µM) | > 16 µg/mL | 1 µg/mL (≈ 1.03 µM) | > 16 µg/mL | – | – | – | – | –
12 | CC[C@H]1OC(=O)[C@H](C)[C@@H](OC(=O)Cc2ccccn2)[C@H](C)[C@@H](O[C@@H]2O[C@H](C)C[C@H](N(C)C)[C@H]2O)[C@](C)(OC(=O)NC/C=C/c2cnc3ccccc3c2)C[C@@H](C)C(=O)[C@H](C)[C@H]2NC(=O)O[C@@]21C [Compound 32] | 0.03 µg/mL (≈ 0.0323 µM) | 0.5 µg/mL (≈ 0.538 µM) | 2 µg/mL (≈ 2.15 µM) | 0.25 µg/mL (≈ 0.269 µM) | 8 µg/mL (≈ 8.6 µM) | – | – | – | – | –
13 | CC[C@H]1OC(=O)[C@H](C)[C@@H](OC(=O)CC2CC2)[C@H](C)[C@@H](O[C@@H]2O[C@H](C)C[C@H](N(C)C)[C@H]2O)[C@](C)(OC(=O)NC/C=C/c2ccc(-c3ncccn3)cc2)C[C@@H](C)C(=O)[C@H](C)[C@H]2NC(=O)O[C@@]21C [Compound 13] | 0.06 µg/mL (≈ 0.0652 µM) | 0.5 µg/mL (≈ 0.543 µM) | 8 µg/mL (≈ 8.69 µM) | 0.5 µg/mL (≈ 0.543 µM) | > 16 µg/mL | – | – | – | – | –
14 | CC[C@H]1OC(=O)[C@H](C)[C@@H](OC(=O)Cc2cccnc2)[C@H](C)[C@@H](O[C@@H]2O[C@H](C)C[C@H](N(C)C)[C@H]2O)[C@](C)(OC(=O)NC/C=C/c2cnc(C3CC3)nc2)C[C@@H](C)C(=O)[C@H](C)[C@H]2NC(=O)O[C@@]21C [Compound 39] | 0.06 µg/mL (≈ 0.0651 µM) | 1 µg/mL (≈ 1.09 µM) | 2 µg/mL (≈ 2.17 µM) | 0.5 µg/mL (≈ 0.543 µM) | 16 µg/mL (≈ 17.4 µM) | – | – | – | – | –
15 | CC[C@H]1OC(=O)[C@H](C)[C@@H](OC(=O)N2Cc3cccnc3C2)[C@H](C)[C@@H](O[C@@H]2O[C@H](C)C[C@H](N(C)C)[C@H]2O)[C@](C)(OC(=O)NC/C=C/c2ccc(-c3ncccn3)cc2)C[C@@H](C)C(=O)[C@H](C)[C@H]2NC(=O)O[C@@]21C [Compound 67] | – | – | – | – | – | 0.06 µg/mL (≈ 0.061 µM) | 0.5 µg/mL (≈ 0.508 µM) | 8 µg/mL (≈ 8.13 µM) | 0.5 µg/mL (≈ 0.508 µM) | > 16 µg/mL
16 | CC[C@H]1OC(=O)[C@H](C)[C@@H](OC(=O)c2ccccc2)[C@H](C)[C@@H](O[C@@H]2O[C@H](C)C[C@H](N(C)C)[C@H]2O)[C@](C)(OC(=O)NC/C=C/c2cccnc2)C[C@@H](C)C(=O)[C@H](C)[C@H]2NC(=O)O[C@@]21C [Compound 18] | 0.12 µg/mL (≈ 0.139 µM) | 4 µg/mL (≈ 4.62 µM) | 8 µg/mL (≈ 9.25 µM) | 0.5 µg/mL (≈ 0.578 µM) | > 16 µg/mL | – | – | – | – | –
17 | CC[C@H]1OC(=O)[C@H](C)[C@@H](OC(=O)Cc2cccnc2)[C@H](C)[C@@H](O[C@@H]2O[C@H](C)C[C@H](N(C)C)[C@H]2O)[C@](C)(OC(=O)NC/C=C/c2ccc(Br)nc2)C[C@@H](C)C(=O)[C@H](C)[C@H]2NC(=O)O[C@@]21C [Compound 28] | < 0.015 µg/mL | 0.5 µg/mL (≈ 0.521 µM) | 1 µg/mL (≈ 1.04 µM) | 0.25 µg/mL (≈ 0.261 µM) | 8 µg/mL (≈ 8.34 µM) | – | – | – | – | –
18 | CC[C@H]1OC(=O)[C@H](C)[C@@H](OC(=O)NC2CCCCC2)[C@H](C)[C@@H](O[C@@H]2O[C@H](C)C[C@H](N(C)C)[C@H]2O)[C@](C)(OC(=O)NC/C=C/c2ccc(-c3ncccn3)cc2)C[C@@H](C)C(=O)[C@H](C)[C@H]2NC(=O)O[C@@]21C [Compound 51] | – | – | – | – | – | 0.12 µg/mL (≈ 0.125 µM) | 1 µg/mL (≈ 1.04 µM) | 2 µg/mL (≈ 2.08 µM) | 0.5 µg/mL (≈ 0.519 µM) | > 16 µg/mL
